Reference: PubChem BioAssay (NCI)
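The compound was tested at five concentrations on cells cultured in 96-well plates, with a 48-hour exposure period. GI50 is the concentration that inhibits growth by half. TGI denotes the concentration required for complete inhibition of growth.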

Experiments:
Assay in all cases: NCI-60 cell line screen, 48 h
K-562 leukemia = tested on: K-562 leukemia
MALME-3M melanoma = tested on: MALME-3M melanoma
CCRF-CEM leukemia = tested on: CCRF-CEM leukemia
MCF7 breast = tested on: MCF7 breast
OVCAR-4 ovarian = tested on: OVCAR-4 ovarian
SNB-75 CNS = tested on: SNB-75 CNS
OVCAR-3 ovarian = tested on: OVCAR-3 ovarian
DU-145 prostate = tested on: DU-145 prostate
CAKI-1 renal = tested on: CAKI-1 renal
NCI-H460 lung = tested on: NCI-H460 lung
IGROV1 ovarian = tested on: IGROV1 ovarian
HOP-92 NSCLC = tested on: HOP-92 NSCLC
T-47D breast = tested on: T-47D breast
SK-MEL-5 melanoma = tested on: SK-MEL-5 melanoma
SF-295 CNS = tested on: SF-295 CNS
SR leukemia = tested on: SR leukemia
NCI/ADR-RES ovarian = tested on: NCI/ADR-RES ovarian
BT-549 breast = tested on: BT-549 breast
HCC-2998 colon = tested on: HCC-2998 colon
COLO 205 colon = tested on: COLO 205 colon
HCT-15 colon = tested on: HCT-15 colon
EKVX NSCLC = tested on: EKVX NSCLC
UO-31 renal = tested on: UO-31 renal
786-0 renal = tested on: 786-0 renal
MDA-MB-435 = tested on: MDA-MB-435
MOLT-4 leukemia = tested on: MOLT-4 leukemia
SNB-19 CNS = tested on: SNB-19 CNS
SW-620 colon = tested on: SW-620 colon
A549 NSCLC = tested on: A549 NSCLC
TK-10 renal = tested on: TK-10 renal
SF-539 CNS = tested on: SF-539 CNS
NCI-H522 lung = tested on: NCI-H522 lung
UACC-62 melanoma = tested on: UACC-62 melanoma
HS 578T breast = tested on: HS 578T breast
HL-60(TB) leukemia = tested on: HL-60(TB) leukemia
NCI-H226 lung = tested on: NCI-H226 lung
SF-268 CNS = tested on: SF-268 CNS
OVCAR-8 ovarian = tested on: OVCAR-8 ovarian
M14 melanoma = tested on: M14 melanoma
ACHN renal = tested on: ACHN renal
KM12 colon = tested on: KM12 colon
LOX IMVI melanoma = tested on: LOX IMVI melanoma
UACC-257 melanoma = tested on: UACC-257 melanoma
SK-OV-3 ovarian = tested on: SK-OV-3 ovarian
A498 renal = tested on: A498 renal
SK-MEL-2 melanoma = tested on: SK-MEL-2 melanoma
HCT-116 colon = tested on: HCT-116 colon
RXF 393 renal = tested on: RXF 393 renal
SK-MEL-28 melanoma = tested on: SK-MEL-28 melanoma
NCI-H23 lung = tested on: NCI-H23 lung
RPMI-8226 leukemia = tested on: RPMI-8226 leukemia
SN12C renal = tested on: SN12C renal
OVCAR-5 ovarian = tested on: OVCAR-5 ovarian
HOP-62 NSCLC = tested on: HOP-62 NSCLC
U251 CNS = tested on: U251 CNS
PC-3 prostate = tested on: PC-3 prostate
MDA-MB-231 breast = tested on: MDA-MB-231 breast
HT29 colon = tested on: HT29 colon

Molecule CCN(CC)S(=O)(=O)c1ccc(OC)c(Nc2ncc(-c3ccccc3)o2)c1 has a GI50 (K-562 leukemia) of over 16.2 µM, a TGI (K-562 leukemia) of over 25 µM and a GI50 (MALME-3M melanoma) of over 25 µM. The TGI (MALME-3M melanoma) was over 25 µM, the GI50 (CCRF-CEM leukemia) was over 19.3 µM and the TGI (CCRF-CEM leukemia) was over 25 µM. For the same molecule, the GI50 (MCF7 breast) was over 14.7 µM, the TGI (MCF7 breast) was over 25 µM and the GI50 (OVCAR-4 ovarian) was 5.57 µM. It also gave a TGI (OVCAR-4 ovarian) of over 25 µM, a GI50 (SNB-75 CNS) of over 9.36 µM and a TGI (SNB-75 CNS) of over 25 µM. It also gave a GI50 (OVCAR-3 ovarian) of over 19.5 µM, a TGI (OVCAR-3 ovarian) of over 25 µM and a GI50 (DU-145 prostate) of over 25 µM. For the same molecule, the TGI (DU-145 prostate) was over 25 µM, the GI50 (CAKI-1 renal) was over 25 µM and the TGI (CAKI-1 renal) was over 25 µM. For the same molecule, the GI50 (NCI-H460 lung) was over 23.1 µM, the TGI (NCI-H460 lung) was over 25 µM and the GI50 (IGROV1 ovarian) was over 25 µM. It also gave a TGI (IGROV1 ovarian) of over 25 µM, a GI50 (HOP-92 NSCLC) of 7.12 µM and a TGI (HOP-92 NSCLC) of over 25 µM. For the same molecule, the GI50 (T-47D breast) was over 11 µM, the TGI (T-47D breast) was 24.4 µM and the GI50 (SK-MEL-5 melanoma) was over 12.2 µM. The TGI (SK-MEL-5 melanoma) was over 25 µM, the GI50 (SF-295 CNS) was over 16.5 µM and the TGI (SF-295 CNS) was over 25 µM. The GI50 (SR leukemia) was over 14.1 µM, the TGI (SR leukemia) was over 25 µM and the GI50 (NCI/ADR-RES ovarian) was over 17.8 µM. The TGI (NCI/ADR-RES ovarian) was over 25 µM, the GI50 (BT-549 breast) was over 18.4 µM and the TGI (BT-549 breast) was over 25 µM. It also gave a GI50 (HCC-2998 colon) of over 25 µM, a TGI (HCC-2998 colon) of over 25 µM and a GI50 (COLO 205 colon) of over 25 µM. It also gave a TGI (COLO 205 colon) of over 25 µM, a GI50 (HCT-15 colon) of over 15.5 µM and a TGI (HCT-15 colon) of over 25 µM. It also gave a GI50 (EKVX NSCLC) of over 25 µM, a TGI (EKVX NSCLC) of over 25 µM and a GI50 (UO-31 renal) of over 12.9 µM. The TGI (UO-31 renal) was over 25 µM, the GI50 (786-0 renal) was 22.8 µM and the TGI (786-0 renal) was over 25 µM. The GI50 (MDA-MB-435) was over 25 µM, the TGI (MDA-MB-435) was over 25 µM and the GI50 (MOLT-4 leukemia) was over 18.3 µM. The TGI (MOLT-4 leukemia) was over 25 µM, the GI50 (SNB-19 CNS) was over 19.2 µM and the TGI (SNB-19 CNS) was over 25 µM. It also gave a GI50 (SW-620 colon) of over 23.7 µM, a TGI (SW-620 colon) of over 25 µM and a GI50 (A549 NSCLC) of 24.9 µM. For the same molecule, the TGI (A549 NSCLC) was over 25 µM, the GI50 (TK-10 renal) was over 17.4 µM and the TGI (TK-10 renal) was over 25 µM. The GI50 (SF-539 CNS) was over 17.3 µM, the TGI (SF-539 CNS) was over 25 µM and the GI50 (NCI-H522 lung) was over 16.9 µM. The TGI (NCI-H522 lung) was over 25 µM, the GI50 (UACC-62 melanoma) was over 18.3 µM and the TGI (UACC-62 melanoma) was over 25 µM. The GI50 (HS 578T breast) was over 14.4 µM, the TGI (HS 578T breast) was over 25 µM and the GI50 (HL-60(TB) leukemia) was over 15 µM. The TGI (HL-60(TB) leukemia) was over 25 µM, the GI50 (NCI-H226 lung) was over 5.28 µM and the TGI (NCI-H226 lung) was over 25 µM. The GI50 (SF-268 CNS) was over 22.3 µM, the TGI (SF-268 CNS) was over 25 µM and the GI50 (OVCAR-8 ovarian) was over 25 µM. For the same molecule, the TGI (OVCAR-8 ovarian) was over 25 µM, the GI50 (M14 melanoma) was over 25 µM and the TGI (M14 melanoma) was over 25 µM. It also gave a GI50 (ACHN renal) of over 22.7 µM, a TGI (ACHN renal) of over 25 µM and a GI50 (KM12 colon) of 0.845 µM. For the same molecule, the TGI (KM12 colon) was over 25 µM, the GI50 (LOX IMVI melanoma) was over 22.6 µM and the TGI (LOX IMVI melanoma) was over 25 µM. The GI50 (UACC-257 melanoma) was over 25 µM, the TGI (UACC-257 melanoma) was over 25 µM and the GI50 (SK-OV-3 ovarian) was 20.9 µM. The TGI (SK-OV-3 ovarian) was over 25 µM, the GI50 (A498 renal) was 1.24 µM and the TGI (A498 renal) was over 15.5 µM. It also gave a GI50 (SK-MEL-2 melanoma) of over 22.7 µM, a TGI (SK-MEL-2 melanoma) of over 25 µM and a GI50 (HCT-116 colon) of over 17.9 µM. The TGI (HCT-116 colon) was over 25 µM, the GI50 (RXF 393 renal) was over 10.6 µM and the TGI (RXF 393 renal) was over 25 µM. For the same molecule, the GI50 (SK-MEL-28 melanoma) was over 25 µM, the TGI (SK-MEL-28 melanoma) was over 25 µM and the GI50 (NCI-H23 lung) was over 22.7 µM. For the same molecule, the TGI (NCI-H23 lung) was over 25 µM, the GI50 (RPMI-8226 leukemia) was over 25 µM and the TGI (RPMI-8226 leukemia) was over 25 µM. For the same molecule, the GI50 (SN12C renal) was over 22.7 µM, the TGI (SN12C renal) was over 25 µM and the GI50 (OVCAR-5 ovarian) was over 21.7 µM. For the same molecule, the TGI (OVCAR-5 ovarian) was over 25 µM, the GI50 (HOP-62 NSCLC) was over 20.1 µM and the TGI (HOP-62 NSCLC) was over 25 µM. For the same molecule, the GI50 (U251 CNS) was over 18.7 µM, the TGI (U251 CNS) was over 25 µM and the GI50 (PC-3 prostate) was over 15.9 µM. For the same molecule, the TGI (PC-3 prostate) was over 25 µM, the GI50 (MDA-MB-231 breast) was over 13.9 µM and the TGI (MDA-MB-231 breast) was over 25 µM. It also gave a GI50 (HT29 colon) of over 17.6 µM and a TGI (HT29 colon) of over 25 µM.
